Results taken from article PMC8175851, “Effects of Genetic Polymorphism in CYP2D6, CYP2C19, and the Organic Cation Transporter OCT1 on Amitriptyline Pharmacokinetics in Healthy Volunteers and Depressive Disorder Patients” (Frontiers in Pharmacology, 2021).
Read-outs that look alike come from different tables or passages of the source.

What was measured:
OCT1 [1] = molecular target: T1, OCT1 (Homo sapiens, UniProt O15245); experiment: in vitro
T1 construct: expressed in transfected cells
T1 sequence (O15245 1-554): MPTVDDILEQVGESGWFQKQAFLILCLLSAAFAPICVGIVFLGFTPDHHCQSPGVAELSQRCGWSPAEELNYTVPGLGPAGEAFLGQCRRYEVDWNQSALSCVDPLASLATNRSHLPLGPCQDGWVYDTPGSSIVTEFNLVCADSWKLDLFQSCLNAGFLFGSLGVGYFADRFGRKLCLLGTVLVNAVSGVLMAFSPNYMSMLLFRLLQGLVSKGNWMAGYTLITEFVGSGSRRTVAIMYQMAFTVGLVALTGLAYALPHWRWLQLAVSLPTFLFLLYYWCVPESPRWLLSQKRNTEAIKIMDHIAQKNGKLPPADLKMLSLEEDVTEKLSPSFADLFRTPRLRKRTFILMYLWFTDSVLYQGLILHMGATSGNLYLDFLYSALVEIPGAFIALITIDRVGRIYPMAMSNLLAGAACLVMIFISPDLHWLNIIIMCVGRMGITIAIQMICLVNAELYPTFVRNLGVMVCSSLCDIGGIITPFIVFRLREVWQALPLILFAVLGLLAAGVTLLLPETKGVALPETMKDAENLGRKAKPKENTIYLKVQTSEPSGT
Experimental: The inhibition of OCT1 by different psychotropic drugs was studied in transport experiments using HEK293 cells stably transfected with wild-type OCT1. The cells were generated by targeted chromosomal integration using the Flp-In system (Thermo Fisher Scientific, Darmstadt, Germany), as has been described in detail before ([Saadatmand et al., 2012]). The cells were cultured in Dulbecco’s Modified Eagle’s Medium supplemented with 10% foetal bovine serum, 100 U/ml penicillin, and 100 μg/ml streptomycin at 37°C, 5% CO2, and 95% relative humidity. Cells were kept in culture for no more than 30 passages. All buffers and reagents were purchased from Thermo Fisher Scientific (Darmstadt, Germany).
Approximately 48 h before the transport experiments, recombinant OCT1-expressing cells and empty vector-transfected control cells were seeded at a density of 4 × 10^5 cells/well in 12-well plates coated with poly-D-lysine and incubated as described above. On the day of the experiment, the cells were washed twice with prewarmed (37°C) Hank’s Balanced Salt Solution (HBSS). They were subsequently incubated for 3 min at 37°C with 1 µM of the fluorescent OCT1 substrate ASP^+ (4-(4-(dimethylamino)styryl)-N-methylpyridinium iodide) and increasing concentrations of the antidepressants in 500 µl HBSS. The reaction was stopped by adding 2 ml ice-cold HBSS. This was subsequently removed and the cells were lyzed in 500 µl radioimmunoprecipitation assay (RIPA) buffer for 10 min under shaking. The cell uptake of ASP^+ was quantified using a Tecan Ultra microplate reader (Tecan Group AG, Männedorf, Switzerland) at excitation wavelength 485 nm and emission wavelength 612 nm. The intracellular ASP^+ concentrations were normalised to the total amount of protein in the sample that was determined using the bicinchoninic acid assay ([Smith et al., 1985]). IC50 values were calculated using SigmaPlot 11 (Systat Software GmbH, Erkrath, Germany) and Prism 5 (GraphPad Software, San Diego, CA, United States).

OCT1 [2] = experiment: Plasma acylcarnitine concentrations as endogenous biomarkers for OCT1 activity in healthy volunteers; format: in vivo, human
Experimental: The peripheral venous blood samples of the healthy volunteers were treated with ethylenediaminetetraacetic acid (EDTA) for anticoagulation, centrifuged within 30 min after withdrawal (3,100 × g, 10 min, room temperature), and the plasma was stored at −20°C. For determining the plasma concentrations of AT, NT, IBC, 2-methylbutyrylcarnitine, and propionylcarnitine, plasma samples were mixed with twice the volume precipitation reagent of 10% (v/v) methanol and 90% (v/v) acetonitrile that included the corresponding deuterated internal standards AT-d6 (Biozol Diagnostica GmbH, Eching, Germany), NT-d3, IBC-d6, 2-methylbutyrylcarnitine-d9, and propionylcarnitine-d3 and d9 (all Santa Cruz Biotechnology, Heidelberg, Germany) and shaken for 15 min. After centrifugation (13,000 rpm, 15 min, room temperature), two-thirds of the supernatant were transferred to a new reaction tube and evaporated at 40°C under nitrogen flow. The residue was reconstituted under shaking in 0.1% methanoic acid and briefly centrifuged before quantification using a Nexera UHPLC system (Shimadzu, Kyoto, Japan) coupled to an API 4000 tandem mass spectrometer (AB Sciex, Darmstadt, Germany). Separation was done using a Brownlee SPP RP-Amide column (4.6 × 100 mm inner dimensions, 2.7 µm particle size; PerkinElmer, Rodgau, Germany) with a Phenomenex C18 pre-column (4 × 2 mm, Phenomenex, Aschaffenburg, Germany). For AT and NT, the mobile phase consisted of 0.1% (v/v) methanoic acid, 5.3% (v/v) methanol, and 31.7% (v/v) acetonitrile in water. For the carnitine derivatives, it consisted of 0.1% (v/v) methanoic acid, 0.43% (v/v) methanol, and 2.57% (v/v) acetonitrile in water. The lower limit of quantification was 0.5 ng/ml for AT and 0.1 ng/ml for NT. […]
In order to investigate the proposed suitability of IBC as a human in vivo biomarker for OCT1 activity ([Luo et al., 2020]), plasma concentrations of IBC as well as of 2-methylbutyrylcarnitine and propionylcarnitine were determined in a subgroup of 18 volunteers who participated in the study on AT pharmacokinetics. […]

[3] = set-up: method as in Rudorfer and Potter, 1999; details: ref Rudorfer and Potter, 1999; cited from earlier work
[4] = set-up: method as in Hardman et al., 2001; details: ref Hardman et al., 2001; cited from earlier work
[5] = no reference given, cited from earlier work
[6] = Adverse effects of amitriptyline in healthy volunteers (visual analogue scales, pupillometry); format: in vivo, human
Experimental: After overnight fasting, a single dose of 25 mg […] dura GmbH, Darmstadt, Germany) was orally administered to each subject. […] For the study in healthy volunteers, the primary endpoints were the AUCs of plasma AT and NT concentrations. Secondary endpoints were the other pharmacokinetic parameters of AT and NT, as well as heart rate, blood pressure, pupil size effects, and possible adverse events (headache, fatigue, visual or hearing impairments, restlessness, nausea, dizziness, dry mouth, tremor, as well as sensations of hypothermia and heart palpitations determined using a visual analogue scale test). Pharmacokinetic parameters were calculated by non-compartmental analysis using Phoenix 64 WinNonlin version 6.3 (Certara Inc., Princeton, NJ, United States). AUCinf of AT was calculated from the time of dosing using the linear/log trapezoidal rule and extrapolated to infinity based on the last predicted concentration and using the terminal elimination rate constant (lambda z). AUC of NT was calculated from the time of dosing until the last measurement at 48 h using the linear/log trapezoidal rule, as a decline in NT concentrations was not observed in some subjects and extrapolation to infinity thus not possible.

With `CN(C)CCC=C1c2ccccc2CCc2ccccc21` [Amitriptyline, amitriptyline] the inhibition at 3 min, 2.69 µM (OCT1 [1]; human, HEK293 cells stably transfected with wild-type OCT1) was 23%, the IC50 (OCT1 [1]; read-out: IC50 (OCT1 inhibition)) was 28.6 ± 18.9 µM and the “plasma IBC concentration relative to baseline IBC concentration” value (OCT1 [2]; 2 h after 25 mg AT administration) was 72%. For the same compound, the “plasma IBC concentration relative to baseline IBC concentration” value (OCT1 [2]; 4 h after 25 mg AT administration) was 67%, the “decrease in IBC plasma concentration observed in vivo” value (OCT1 [2]; after 25 mg AT) was 33% and the “excreted unchanged in urine” value [3] was “less than 5%”. The plasma protein binding [4] was 95%, the positively charged fraction ([5]; at physiological pH) was “approximately 99%” and the logD7.4 ([5]; pH 7.4) was 3. For the same compound, the serious adverse events ([6]; healthy volunteers, single oral 25 mg AT, entire study) was “no serious adverse events occurred”, the tolerability ([6]; healthy volunteers, single oral 25 mg AT, no placebo control) was “generally well-tolerated” and the “time- and concentration-related adverse effects (dry mouth, visual or hearing impairment, restlessness, headache, nausea, dizziness, sensation of cold) and anticholinergic effects by pupillometry” value ([6]; visual analogue scales and pupillometry, 25 mg AT dose) was “not observed”. For the same compound, the “time of peak fatigue symptoms after administration” value ([6]; visual analogue scales, healthy volunteers, 25 mg AT, no placebo control) was 3 h.
Work on `CNCCC=C1c2ccccc2CCc2ccccc21` [Nortriptyline, nortriptyline] yielded an IC50 (OCT1 [1]; inhibition of uptake of 1 µM ASP+, 3 min, HEK293 cells with wild-type OCT1, mean) of 40.4 ± 16.2 µM.
